Read-outs that look alike come from different tables or passages of the source.
Legend:
[1] = biological target: human Werner helicase (WRN, amino acids 517-1235 with L1074F point mutation) (Homo sapiens (Human), UniProt Q14191, L1074F); assay: WRN (BV08) ADP-Glo assay; format: biochemical; conditions: human WRN (aa 517-1235, L1074F), read-out: ADP-Glo_hWRN_IC50
Procedure, shortened: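 Untagged WRN 517-1235 (L1074F), Sf9/baculovirus-expressed, 0.15 nM, preincubated 15 min with compound, then 5 μM ATP and 0.1 nM annealed DNA duplex added; 60 min at 25 °C in Bicine pH 7.5, 1 mM MgCl2, 1% DMSO. ADP-Glo luminescence; % inhibition vs DMSO and 20 μM NSC-617145 controls, four-parameter IC50 fit.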

[2] = system: p21 induction in HCT 116 cells; assay: p21 induction in cells (In-Cell Western, p21/GAPDH ratio); format: cell-based; conditions: 24 h compound incubation, read-out: p21_EC50
Procedure, shortened: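 HCT 116 cells treated 24 h at 37° C with 11-point, 2-fold dilutions typically from 10 μM, in duplicate. Fixed cells co-stained for p21 (800 nm) and GAPDH (700 nm) by In-Cell Western. p21/GAPDH ratio normalised between DMSO and reference WRN inhibitor controls, and EC50 obtained by nonlinear regression.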

human Werner helicase (WRN, amino acids 517-1235 with L1074F point mutation), sequence (Q14191 other isoform, or with tags, fused parts or gaps L1074F (already in the parent)): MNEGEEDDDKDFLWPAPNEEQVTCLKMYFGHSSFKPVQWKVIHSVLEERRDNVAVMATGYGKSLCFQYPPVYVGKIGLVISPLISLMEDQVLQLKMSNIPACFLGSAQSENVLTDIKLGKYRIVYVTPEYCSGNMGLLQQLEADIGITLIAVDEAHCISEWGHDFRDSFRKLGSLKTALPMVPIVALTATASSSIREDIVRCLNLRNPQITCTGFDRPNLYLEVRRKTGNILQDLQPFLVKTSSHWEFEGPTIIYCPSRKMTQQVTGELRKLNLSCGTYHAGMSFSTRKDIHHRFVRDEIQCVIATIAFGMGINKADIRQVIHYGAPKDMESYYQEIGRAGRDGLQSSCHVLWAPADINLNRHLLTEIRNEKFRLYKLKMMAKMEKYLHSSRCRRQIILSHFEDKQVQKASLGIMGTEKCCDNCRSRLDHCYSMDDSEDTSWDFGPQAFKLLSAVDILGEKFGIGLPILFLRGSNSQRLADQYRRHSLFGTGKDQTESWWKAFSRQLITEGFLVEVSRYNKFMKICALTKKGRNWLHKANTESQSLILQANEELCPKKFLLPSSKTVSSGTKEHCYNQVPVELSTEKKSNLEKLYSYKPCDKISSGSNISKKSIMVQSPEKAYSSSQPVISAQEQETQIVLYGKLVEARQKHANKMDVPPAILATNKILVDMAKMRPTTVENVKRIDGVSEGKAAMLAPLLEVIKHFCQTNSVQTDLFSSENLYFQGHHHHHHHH

IC50 [1]	EC50 ([2]; Homo sapiens)	EC50 [2]	Structure (SMILES)
5 to 50 nM	500 to 2000 nM		CCc1c(N2CCN(C(=O)c3ncnc(C)c3O)CC2)c(=O)c2nn(-c3ccncc3)nc2n1CC(=O)NC12CC(C3CCC3)(C1)C2 [Compound I-141, N-{3-cyclobutylbicyclo[1.1.1]pentan-1-yl}-2-{5-ethyl-6-[4-(5-hydroxy-6-methylpyrimidine-4-carbonyl)piperazin-1-yl]-7-oxo-2-(pyridin-4-yl)-2H,4H,7H-[1,2,3]triazolo[4,5-b]pyridin-4-yl}acetamide]
5 to 50 nM	2000 to 5000 nM		CCc1c(N2CCN(C(=O)c3c(OC)ncc(C)c3O)CC2)c(=O)c2nn(-c3ccnc(OC)c3)nc2n1CC(=O)NC1CC2(CC(C)C2)C1 (stereo not shown) [Compound I-103, 2-{5-ethyl-6-[4-(4-hydroxy-2-methoxy-5-methylpyridine-3-carbonyl)piperazin-1-yl]-2-(2-methoxypyridin-4-yl)-7-oxo-2H,4H,7H-[1,2,3]triazolo[4,5-b]pyridin-4-yl}-N-{6-methylspiro[3.3]heptan-2-yl}acetamide]
5 to 50 nM	500 to 2000 nM		CCc1c(N2CCN(C(=O)c3ccncc3OC)[C@H]3CC[C@@H]32)c(=O)c2nn(C3=CCOCC3)nc2n1CC(=O)NC12CC(C(C)C)(C1)C2 [Compound I-208, 2-[2-(3,6-dihydro-2H-pyran-4-yl)-5-ethyl-6-[(1S,6S)-5-(3-methoxypyridine-4-carbonyl)-2,5-diazabicyclo[4.2.0]octan-2-yl]-7-oxo-2H,4H,7H-[1,2,3]triazolo[4,5-b]pyridin-4-yl]-N-[3-(propan-2-yl)bicyclo[1.1.1]pentan-1-yl]acetamide]
≤ 5 nM	≤ 500 nM		CCc1c(N2CCN(C(=O)c3ncnc(C)c3O)[C@H]3CC[C@@H]32)c(=O)c2nn(-c3ccc(OC)cc3)nc2n1CC(=O)NC12CC(C(C)C)(C1)C2 [Compound I-155, 2-{5-ethyl-6-[(1S,6S)-5-(5-hydroxy-6-methylpyrimidine-4-carbonyl)-2,5-diazabicyclo[4.2.0]octan-2-yl]-2-(4-methoxyphenyl)-7-oxo-2H,4H,7H-[1,2,3]triazolo[4,5-b]pyridin-4-yl}-N-[3-(propan-2-yl)bicyclo[1.1.1]pentan-1-yl]acetamide]
5 to 50 nM	500 to 2000 nM		CCc1c(N2CCN(C(=O)c3cn(C)nc3OC)[C@H]3CC[C@@H]32)c(=O)c2nn(C3=CCOCC3)nc2n1CC(=O)NC12CC(C(C)C)(C1)C2 [Compound I-209, 2-[2-(3,6-dihydro-2H-pyran-4-yl)-5-ethyl-6-[(1S,6S)-5-(3-methoxy-1-methyl-1H-pyrazole-4-carbonyl)-2,5-diazabicyclo[4.2.0]octan-2-yl]-7-oxo-2H,4H,7H-[1,2,3]triazolo[4,5-b]pyridin-4-yl]-N-[3-(propan-2-yl)bicyclo[1.1.1]pentan-1-yl]acetamide]
5 to 50 nM		≤ 500 nM	CCc1c(N2CCN(C(=O)c3ncnc(C)c3O)[C@H]3CC[C@@H]32)c(=O)c2nn(-c3ccnc(OC)c3)nc2n1CC(=O)NC12CC(C(C)C)(C1)C2 [Compound I-48, 2-{5-ethyl-6-[(1S,6S)-5-(5-hydroxy-6-methylpyrimidine-4-carbonyl)-2,5-diazabicyclo[4.2.0]octan-2-yl]-2-(2-methoxypyridin-4-yl)-7-oxo-2H,4H,7H-[1,2,3]triazolo[4,5-b]pyridin-4-yl}-N-[3-(propan-2-yl)bicyclo[1.1.1]pentan-1-yl]acetamide]
5 to 50 nM	≤ 500 nM		CCOc1ncc(C)c(O)c1C(=O)N1CCN(c2c(CC)n(CC(=O)NC34CC(C(C)C)(C3)C4)c3nn(-c4ccnc(OC)c4)nc3c2=O)CC1 [Compound I-98, 2-{6-[4-(2-ethoxy-4-hydroxy-5-methylpyridine-3-carbonyl)piperazin-1-yl]-5-ethyl-2-(2-methoxypyridin-4-yl)-7-oxo-2H,4H,7H-[1,2,3]triazolo[4,5-b]pyridin-4-yl}-N-[3-(propan-2-yl)bicyclo[1.1.1]pentan-1-yl]acetamide]
5 to 50 nM	500 to 2000 nM		CCc1c(N2CCN(C(=O)c3ncnc(C)c3O)[C@H]3CC[C@@H]32)c(=O)c2nn(-c3ccnc(OC)c3)nc2n1CC(=O)NC1CC2(CC(F)C2)C1 (stereo partly drawn) [Compound I-47, 2-{5-ethyl-6-[(1S,6S)-5-(5-hydroxy-6-methylpyrimidine-4-carbonyl)-2,5-diazabicyclo[4.2.0]octan-2-yl]-2-(2-methoxypyridin-4-yl)-7-oxo-2H,4H,7H-[1,2,3]triazolo[4,5-b]pyridin-4-yl}-N-{6-fluorospiro[3.3]heptan-2-yl}acetamide]
5 to 50 nM	≤ 500 nM		CCc1c(N2CCN(C(=O)c3c(OC)ncc([C@@H]4CCOC4)c3O)CC2)c(=O)c2nn(-c3ccnc(OC)c3)nc2n1CC(=O)NC12CC(C(C)C)(C1)C2 (single isomer, unassigned) [Compound I-44]
≤ 5 nM	≤ 500 nM		CCc1c(N2CCN(C(=O)c3ncnc(C)c3O)[C@H]3CC[C@@H]32)c(=O)c2nn(C3=CCOCC3)nc2n1CC(=O)Nc1ccc(C(F)(F)F)cc1F [Compound I-12, 2-(2-(3,6-dihydro-2H-pyran-4-yl)-5-ethyl-6-((1S,6S)-5-(5-hydroxy-6-methylpyrimidine-4-carbonyl)-2,5-diazabicyclo[4.2.0]octan-2-yl)-7-oxo-2,7-dihydro-4H-[1,2,3]triazolo[4,5-b]pyridin-4-yl)-N-(2-fluoro-4-(trifluoromethyl)phenyl)acetamide]
5 to 50 nM	500 to 2000 nM		CCc1c(N2CCN(C(=O)c3ncnc(C)c3O)CC2)c(=O)c2nn(-c3ccccn3)nc2n1CC(=O)NC12CC(C(C)C)(C1)C2 [Compound I-101, 2-{5-ethyl-6-[4-(5-hydroxy-6-methylpyrimidine-4-carbonyl)piperazin-1-yl]-7-oxo-2-(pyridin-2-yl)-2H,4H,7H-[1,2,3]triazolo[4,5-b]pyridin-4-yl}-N-[3-(propan-2-yl)bicyclo[1.1.1]pentan-1-yl]acetamide]
≤ 5 nM	≤ 500 nM		CCc1c(N2CCN(C(=O)c3c(OC)ncc(C)c3O)[C@H]3CC[C@@H]32)c(=O)c2nn(C3=CCOCC3)nc2n1CC(=O)Nc1ccc(C(F)(F)F)cc1Cl [Compound I-23, N-(2-chloro-4-(trifluoromethyl)phenyl)-2-(2-(3,6-dihydro-2H-pyran-4-yl)-5-ethyl-6-((1S,6S)-5-(4-hydroxy-2-methoxy-5-methylnicotinoyl)-2,5-diazabicyclo[4.2.0]octan-2-yl)-7-oxo-2,7-dihydro-4H-[1,2,3]triazolo[4,5-b]pyridin-4-yl)acetamide]
5 to 50 nM	≤ 500 nM		CCc1c(N2CCN(C(=O)c3c(OC)ncc(C)c3O)CC2)c(=O)c2nn(-c3ccnc(C)c3)nc2n1CC(=O)NC12CC(C(C)C)(C1)C2 [Compound I-130, 2-{5-ethyl-6-[4-(4-hydroxy-2-methoxy-5-methylpyridine-3-carbonyl)piperazin-1-yl]-2-(2-methylpyridin-4-yl)-7-oxo-2H,4H,7H-[1,2,3]triazolo[4,5-b]pyridin-4-yl}-N-[3-(propan-2-yl)bicyclo[1.1.1]pentan-1-yl]acetamide]
5 to 50 nM	500 to 2000 nM		CCc1c(N2CCN(C(=O)c3ncnc(C)c3O)[C@H]3CC[C@@H]32)c(=O)c2nn(C3CC3)nc2n1CC(=O)NC12CC(C3CC3)(C1)C2 [Compound I-202, 2-{2-cyclopropyl-5-ethyl-6-[(1S,6S)-5-(5-hydroxy-6-methylpyrimidine-4-carbonyl)-2,5-diazabicyclo[4.2.0]octan-2-yl]-7-oxo-2H,4H,7H-[1,2,3]triazolo[4,5-b]pyridin-4-yl}-N-{3-cyclopropylbicyclo[1.1.1]pentan-1-yl}acetamide]

Source: US20250129069A1, “TRIAZOLO WRN INHIBITORS” (Nimbus Wadjet, Inc., priority 2023, published 2025)
